Source: US20140377870A1 (priority 2010, published 2014)

Tests used:
[1] = system: cells not expressing the HSV-TK gene; details: cited from earlier work
ES cells = details: cited from earlier work
VACVΔE3L::GyrB-PKRK296H = assay type: cell-based, vaccinia virus
VACVΔJ2R::GyrB-PKR = assay type: cell-based, vaccinia virus
VACVΔE3L = assay type: cell-based, vaccinia virus
VACVΔE3L::GyrB-PKR = assay type: cell-based, vaccinia virus

Molecule: Nc1nc(O)c2ncn(COC(CO)CO)c2n1 [GCV, ganciclovir]
- nonspecific toxicity [1]: nonspecific toxicity
- totipotency of ES cells (ES cells): reduce the totipotency

Molecule: Coumermycin A1
- sensitivity of virus to coumermycin (VACVΔE3L::GyrB-PKRK296H): resistant to all doses
- sensitivity to coumermycin compared to untreated cells (VACVΔJ2R::GyrB-PKR): at least 100,000 fold
- sensitivity of virus to coumermycin (VACVΔE3L): resistant to all doses
- coumermycin concentration at which sensitivity of the virus was observed (VACVΔE3L::GyrB-PKR): greater than 5 ng/ml
